# Results reported in patent publication US10035760B2, “Inhibitors of human immunodeficiency virus replication” (priority 2013, dated 2018).
# Read-outs that look alike come from different tables or passages of the source.
# Test system: recombinant NL4-3 virus (Renilla luciferase) in MT-2 cells
# Experiment: HIV cell culture assay (antiviral activity, luciferase readout in infected MT-2 cells)
# Assay type: cell-based
# Details: Renilla
# Experimental: HIV cell culture assay—MT-2 cells, 293T cells and the proviral DNA clone of NL4-3 virus were obtained from the NIH AIDS Research and Reference Reagent Program. MT-2 cells were propagated in RPMI 1640 media supplemented with 10% heat inactivated fetal bovine serum (FBS), 100 ug/ml penicillin G and up to 100 units/ml streptomycin. The 293T cells were propagated in DMEM media supplemented with 10% heat inactivated FBS, 100 ug/ml penicillin G and 100 ug/ml streptomycin. A recombinant NL4-3 proviral clone, in which a section of the nef gene was replaced with the Renilla luciferase gene, was used to make the reference virus used in these studies. The recombinant virus was prepared through transfection of the recombinant NL4-3 proviral clone into 293T cells using Transit-293 Transfection Reagent from Mirus Bio LLC (Madison, Wis.). Supernatent was harvested after 2-3 days after transfection, and the amount of virus present was titered in MT-2 cells using luciferase enzyme activity as a marker. Luciferase activity was quantitated using the EnduRen Live Cell Substrate from Promega (Madison, Wis.). Antiviral activities of compounds toward the recombinant virus were quantified by measuring luciferase activity in MT-2 cells infected for 4-5 days with the recombinant virus in the presence of serial dilutions of the compound.
# The 50% effective concentration (EC50) was calculated by using the exponential form of the median effect equation where (Fa)=1/[1+(ED50/drug conc.)^m](Johnson V A, Byington R T. Infectivity Assay. In Techniques in HIV Research. ed. Aldovini A, Walker B D. 71-76. New York: Stockton Press. 1990).
# [1] = NL43, read-out: Activity, antiviral activity class, recombinant NL4-3 Renilla luciferase virus in MT-2 cells
# [2] = NL43, recombinant NL4-3 Renilla luciferase virus in MT-2 cells
Structure (SMILES),EC50 [1] [nM],EC50 [2] [nM]
"CCN(C(=O)[C@H](Cc1ccccc1)NC(=O)NS(=O)(=O)c1ccccc1C)c1ccc2ccccc2c1 [Example 177, (S)—N-ethyl-N-(naphthalen-2-yl)-3-phenyl-2-(3-(o-tolylsulfonyl)ureido)propanamide]",< 100,
"CN(C(=O)[C@H](Cc1ccccc1)NC(=O)NS(=O)(=O)c1ccccc1F)c1ccc2c(c1)OCO2 [Example 9, (S)—N-(benzo[d][1,3]dioxol-5-yl)-2-(3-((2-fluorophenyl)sulfonyl)ureido)-N-methyl-3-phenylpropanamide]",< 100,
"CN(C(=O)[C@H](Cc1cc(F)cc(F)c1)NC(=O)NS(=O)(=O)c1ccccc1Cl)c1ccc2c(c1)OC(F)(F)O2 [Example 39, (S)-2-(3-((2-chlorophenyl)sulfonyl)ureido)-N-(2,2-difluorobenzo[d][1,3]dioxol-5-yl)-3-(3,5-difluorophenyl)-N-methylpropanamide]",100 to 1000,
"CN(C(=O)[C@H](Cc1cc(F)cc(F)c1)NC(=O)NS(=O)(=O)c1cc(F)ccc1F)c1ccc2scnc2c1 [Example ZY-14, (S)—N-(benzo[d]thiazol-5-yl)-3-(3,5-difluorophenyl)-2-(3-((2,5-difluorophenyl)sulfonyl)ureido)-N-methylpropanamide]",100 to 1000,
"Cc1ccccc1S(=O)(=O)NC(=O)N[C@@H](Cc1ccccc1)C(=O)N(C)c1ccc(NC(=O)N(C)C)cc1 [Example CA-92, (S)—N-(4-(3,3-dimethylureido)phenyl)-N-methyl-3-phenyl-2-(3-(o-tolylsulfonyl)ureido)propanamide]",1000 to 10000,
"Cc1ccccc1S(=O)(=O)NC(=O)N[C@@H](Cc1cc(F)cc(F)c1)C(=O)N(C)c1ccc2scnc2c1 [Example ZY-7, (S)—N-(benzo[d]thiazol-5-yl)-3-(3,5-difluorophenyl)-N-methyl-2-(3-(o-tolylsulfonyl)ureido)propanamide]",< 100,
"Cc1ccc2cc(N(C)C(=O)[C@H](Cc3ccccc3)NC(=O)NS(=O)(=O)c3ccccc3C)ccc2n1 [Example CA-72, (S)—N-methyl-N-(2-methylquinolin-6-yl)-3-phenyl-2-(3-(o-tolylsulfonyl)ureido)propanamide]",< 100,30
"CCN(C(=O)[C@H](Cc1ccccc1)NC(=O)NS(=O)(=O)c1cccc(-c2ccsc2Cl)c1)c1ccc(OC)cc1 [Example 150, (S)-2-(3-((3-(2-chlorothiophen-3-yl)phenyl)sulfonyl)ureido)-N-ethyl-N-ethyl-N-(4-methoxyphenyl)-3-phenylpropanamide]",100 to 1000,
"Cc1ccccc1S(=O)(=O)NC(=O)N[C@@H](Cc1ccc(OCc2ccccc2)cc1)C(=O)N(C)c1ccc2c(c1)OCO2 [Example 68, (S)—N-(benzo[d][1,3]dioxol-5-yl)-3-(4-(benzyloxy)phenyl)-N-methyl-2-(3-(o-tolylsulfonyl)ureido)propanamide]",10000 to 100000,16000
"CN(C(=O)[C@H](Cc1ccccc1)NC(=O)NS(=O)(=O)c1c(Cl)cccc1Cl)c1ccc2c(c1)OCO2 [Example 100, (S)—N-(benzo[d][1,3]dioxol-5-yl)-2-(3-((2,6-dichlorophenyl)sulfonyl)ureido)-N-methyl-3-phenylpropanamide]",< 100,
"Cc1ccccc1S(=O)(=O)NC(=O)N[C@@H](Cc1cccc(F)c1)C(=O)N(C)c1ccc2c(c1)OCO2 [Example 85, (S)—N-(benzo[d][1,3]dioxol-5-yl)-3-(3-fluorophenyl)-N-methyl-2-(3-(o-tolylsulfonyl)ureido)propanamide]",100 to 1000,
"CN(C(=O)[C@H](Cc1ccccc1)NC(=O)NS(=O)(=O)c1ccccc1-c1cccc(O)c1)c1ccc2c(c1)OCO2 [Example 125, (S)—N-(benzo[d][1,3]dioxol-5-yl)-2-(3-((3′-hydroxy-[1,1′-biphenyl]-2-yl)sulfonyl)ureido)-N-methyl-3-phenylpropanamide]",1000 to 10000,
CCN(C(=O)[C@H](Cc1ccccc1)NC(=O)NS(=O)(=O)c1cccc(-c2csc(C(=O)O)c2)c1C)c1ccc(OC)cc1 [Example 160],1000 to 10000,5640
"CN(C(=O)[C@H](Cc1ccccc1)NC(=O)NS(=O)(=O)c1ccccc1C(F)(F)F)c1ccc2c(c1)OCO2 [Example 17, (S)—N-(benzo[d][1,3]dioxol-5-yl)-N-methyl-3-phenyl-2-(3-((2-(trifluoromethyl)phenyl)sulfonyl)ureido)propanamide]",100 to 1000,
"Cc1ccccc1S(=O)(=O)NC(=O)N[C@@H](Cc1cc(F)cc(F)c1)C(=O)N(C)c1ccccc1F [Example CA-107, (S)-3-(3,5-difluorophenyl)-N-(2-fluorophenyl)-N-methyl-2-(3-(o-tolylsulfonyl)ureido)propanamide]",1000 to 10000,
"Cc1ccccc1S(=O)(=O)NC(=O)N[C@@H](Cc1ccc(O)cc1)C(=O)N(C)c1ccc2c(c1)OCO2 [Example 82, (S)—N-(benzo[d][1,3]dioxol-5-yl)-3-(4-hydroxyphenyl)-N-methyl-2-(3-(o-tolylsulfonyl)ureido)propanamide]",1000 to 10000,
"CCN(C(=O)[C@H](Cc1ccccc1)NC(=O)NS(=O)(=O)c1cccc(C(C)C)c1)c1ccc(OC)cc1 [Example 143, (S)—N-ethyl-2-(3-((3-isopropylphenyl)sulfonyl)ureido)-N-(4-methoxyphenyl)-3-phenylpropanamide]",< 100,
"Cc1ccc(C[C@H](NC(=O)NS(=O)(=O)c2ccccc2C)C(=O)N(C)c2ccc3c(c2)OCO3)cc1 [Example 72, (S)—N-(benzo[d][1,3]dioxol-5-yl)-N-methyl-3-(p-tolyl)-2-(3-(o-tolylsulfonyl)ureido)propanamide]",100 to 1000,580
"CCN(C(=O)[C@H](Cc1ccccc1)NC(=O)NS(=O)(=O)c1cccc(-c2ccsc2)c1)c1ccc(OC)cc1 [Example 151, (S)—N-ethyl-N-(4-methoxyphenyl)-3-phenyl-2-(3-((3-(thiophen-3-yl)phenyl)sulfonyl)ureido)propanamide]",100 to 1000,110
"Cc1ccccc1S(=O)(=O)NC(=O)N[C@@H](Cc1ccccc1C#N)C(=O)N(C)c1ccc2c(c1)OCO2 [Example 77, (S)—N-(benzo[d][1,3]dioxol-5-yl)-3-(2-cyanophenyl)-N-methyl-2-(3-(o-tolylsulfonyl)ureido)propanamide]",1000 to 10000,
"CCCc1ccccc1S(=O)(=O)NC(=O)N[C@@H](Cc1ccccc1)C(=O)N(C)c1ccc2c(c1)OCO2 [Example 145, (S)—N-(benzo[d][1,3]dioxol-5-yl)-N-methyl-3-phenyl-2-(3-((2-propylphenyl)sulfonyl)ureido)propanamide]",100 to 1000,
"COc1ccc(N(C)C(=O)[C@H](Cc2ccccc2)NC(=O)NS(=O)(=O)c2ccccc2C)cc1C [Example CA-77, (S)—N-(4-methoxy-3-methylphenyl)-N-methyl-3-phenyl-2-(3-(o-tolylsulfonyl)ureido)propanamide]",< 100,
"CN(C(=O)[C@H](Cc1ccccc1)NC(=O)NS(=O)(=O)c1ccccc1)c1cccc2ccccc12 [Example 94, (S)—N-methyl-N-(naphthalen-1-yl)-3-phenyl-2-(3-(phenylsulfonyl)ureido)-propanamide]",10000 to 100000,
"CNS(=O)(=O)c1cccc(N(C)C(=O)[C@H](Cc2cc(F)cc(F)c2)NC(=O)NS(=O)(=O)c2ccccc2C)c1 [Example CA-106, (S)-3-(3,5-difluorophenyl)-N-methyl-N-(3-(N-methylsulfamoyl)phenyl)-2-(3-(o-tolylsulfonyl)ureido)propanamide]",1000 to 10000,
"Cc1ccccc1S(=O)(=O)NC(=O)N[C@@H](Cc1ccccc1Br)C(=O)N(C)c1ccc2c(c1)OCO2 [Example 76, (S)—N-(benzo[d][1,3]dioxol-5-yl)-3-(2-bromophenyl)-N-methyl-2-(3-(o-tolylsulfonyl)ureido)propanamide]",1000 to 10000,
"Cc1ccccc1S(=O)(=O)NC(=O)N[C@@H](Cc1ccccc1)C(=O)N(C)c1ccc2c(c1)OC(F)(F)O2 [Example 37, (S)—N-(2,2-difluorobenzo[d][1,3]dioxol-5-yl)-N-methyl-3-phenyl-2-(3-(o-tolylsulfonyl)ureido)propanamide]",100 to 1000,
"CC(=O)Nc1ccc(N(C)C(=O)[C@H](Cc2ccccc2)NC(=O)NS(=O)(=O)c2ccccc2C)cc1O [Example CA-85, (S)—N-(4-acetamido-3-hydroxyphenyl)-N-methyl-3-phenyl-2-(3-(o-tolylsulfonyl)ureido)propanamide]",1000 to 10000,
"CCN(C(=O)[C@H](Cc1ccccc1)NC(=O)NS(=O)(=O)c1ccccc1C)c1ccc(O)c(NC=O)c1 [Example CA-89, (S)—N-ethyl-N-(3-formamido-4-hydroxyphenyl)-3-phenyl-2-(3-(o-tolylsulfonyl)ureido)propanamide]",100 to 1000,600
"CCN(C(=O)[C@H](Cc1ccccc1)NC(=O)NS(=O)(=O)c1cccc(-c2cnoc2)c1C)c1ccc(OC)cc1 [Example 159, (S)—N-ethyl-2-(3-((3-(isoxazol-4-yl)-2-methylphenyl)sulfonyl)ureido)-N-(4-methoxyphenyl)-3-phenylpropanamide]",100 to 1000,
